# pIC50: −log10 of the molar value.
# Biological target: T1, p38 MAP kinase (Homo sapiens, UniProt Q16539)
# T1 construct: made in house; host or cells: E. coli (co-expressed with SEK-1 and MEKK to obtain the phosphorylated form)
# Test: p38 (MAP) kinase in vitro assay
# Type: biochemical
# Details: transfer of γ-33P from ATP to Myelin Basic Protein by phosphorylated recombinant p38 MAP kinase
# Protocol: This example illustrates a p38 (MAP) kinase in vitro assay useful for evaluating the compounds of the invention.
# The p38 MAP kinase inhibitory activity of compounds of this invention in vitro was determined by measuring the transfer of the γ-phosphate from γ-^33P-ATP by p-38 kinase to Myelin Basic Protein (MBP), using a minor modification of the method described in Ahn, et al., J. Biol. Chem. 266:4220-4227 (1991). […] The phosphorylated form of the recombinant p38 MAP kinase was co-expressed with SEK-1 and MEKK in E. Coli (see, Khokhlatchev, et al., J. Biol. Chem. 272:11057-11062 (1997)) and then purified by affinity chromatography using a Nickel column.
# The phosphorylated p38 MAP kinase was diluted in kinase buffer (20 mM 3-(N-morpholino)propanesulfonic acid, pH 7.2, 25 mM β-glycerol phosphate, 5 mM ethylene glycol-bis(beta-aminoethyl ether)-N,N,N′,N′-tetraacetic acid, 1 mM sodium or tho-vanadate, 1 mM dithiothreitol, 40 mM magnesium chloride). Test compound dissolved in DMSO or only DMSO (control) was added and the samples were incubated for 10 min at 30° C. The kinase reaction was initiated by the addition of a substrate cocktail containing MBP and γ-^33P-ATP. […] The phosphorylated MBP was then separated from the residual γ-^33P-ATP using a phosphocellulose membrane (Millipore, Bedfrod, Mass.) and quantitated using a scintillation counter (Packard, Meriden, Conn.).
# T1 sequence (Q16539 whole entry): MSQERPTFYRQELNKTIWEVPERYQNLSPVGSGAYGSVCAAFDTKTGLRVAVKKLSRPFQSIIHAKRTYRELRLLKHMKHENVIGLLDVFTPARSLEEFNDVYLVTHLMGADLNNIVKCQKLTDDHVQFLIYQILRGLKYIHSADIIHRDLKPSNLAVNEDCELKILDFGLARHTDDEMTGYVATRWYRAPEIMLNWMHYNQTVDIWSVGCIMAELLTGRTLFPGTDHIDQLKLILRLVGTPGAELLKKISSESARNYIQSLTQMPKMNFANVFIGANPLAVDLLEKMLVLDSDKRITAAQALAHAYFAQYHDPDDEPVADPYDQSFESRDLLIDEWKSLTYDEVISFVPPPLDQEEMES
row,pIC50,Compound
1,~9.00,"CC(C)(O)CNc1nc(Oc2ccc(F)cc2F)cc2[nH]nc(-c3cc(F)ccc3F)c12 [Compound 45, 1-[6-(2,4-Difluoro-phenoxy)-3-(2,5-difluoro-phenyl)-1H-pyrazolo[4,3-c]pyridin-4-ylamino]-2-methyl-propan-2-ol]"

# Tested on: not given
# Test: not given
# Details: not given
row,Compound,melting point
1,"Fc1ccc(Oc2cnc3c(-c4ccccc4Cl)n[nH]c3n2)c(F)c1 [Example 5, 3-(2-chlorophenyl)-6-(2,4-difluorophenoxy)-1H-pyrazolo[3,4-b]pyrazine]",240.5 to 241.5 °C
2,"COc1ccccc1-c1n[nH]c2cc(Oc3ccc(F)cc3F)cnc12 [Example 8, 6-(2,4-Difluoro-phenoxy)-3-(2-methoxy-phenyl)-1H-pyrazolo[4,3-b]pyridine]",143.2 to 144.9 °C
3,"Clc1ccccc1Oc1ncc2c(-c3cccs3)n[nH]c2n1 [Example 14, 6-(2-Chloro-phenoxy)-3-thiophen-2-yl-1H-pyrazolo[3,4-d]pyrimidine]",221.3 to 223.1 °C
4,"C[C@H](O)CNc1nc(Oc2ccc(F)cc2F)nc2[nH]nc(-c3ccccc3Cl)c12 [Example 16, (S)-1-[3-(2-chlorophenyl)-6-(2,4-difluorophenoxy)-1H-pyrazolo[3,4-d]pyrimidin-4-ylamino]propan-2-ol]",254.6 to 258.2 °C
5,"OC[C@H](O)COc1nc(Oc2ccc(F)cc2F)nc2[nH]nc(-c3ccccc3Cl)c12 [Example 20, (S)-3-[3-(2-Chloro-phenyl)-6-(2,4-difluoro-phenoxy)-1H-pyrazolo[3,4-d]pyrimidin-4-yloxy]-propane-1,2-diol]",179.2 to 181.3 °C
6,"C[C@H](O)CNc1nc(Oc2ccc(F)cc2F)cc2[nH]nc(-c3ccccc3Cl)c12 [Example 24, (S)-1-[3-(2-Chloro-phenyl)-6-(2,4-difluoro-phenoxy)-1H-pyrazolo[4,3-c]pyridin-4-ylamino]-propan-2-ol]",171.2 to 172 °C

# Further lines, results first:
row,melting point,Compound
1,173.4 to 176.4 °C,"Fc1ccc(Oc2ncc3c(-c4ccccc4Cl)n[nH]c3n2)c(F)c1 [Example 1, 3-(2-chlorophenyl)-6-(2,4-difluoro-phenoxy)-1H-pyrazolo[3,4-d]pyrimidine]"
2,230.2 to 232.4 °C,"Fc1ccccc1Nc1ncc2c(-c3ccccc3Cl)n[nH]c2n1 [Example 2, [3-(2-chlorophenyl)-1H-pyrazolo[3,4-d]pyrimidin-6-yl]-(2-fluorophenyl)amine]"
3,177.6 to 183.2 °C,"Fc1ccc(Sc2ncc3c(-c4ccccc4Cl)n[nH]c3n2)c(F)c1 [Example 3, 3-(2-chlorophenyl)-6-(2,4-difluorophenylsulfanyl)-1H-pyrazolo[3,4-d]pyrimidine]"

# Source: patent US7566708B2, “Substituted pyrazolo{3,4-D}pyrimidines as p38 map kinase inhibitors” (Roche Palo Alto LLC, priority 2005, dated 2009)
